Data on six molecules can be found in ChEMBL document CHEMBL1146295, “An efficient synthesis of quinoxaline derivatives from 4-chloro-4-deoxy-alpha-D-galactose and their cytotoxic activities” (Bioorg Med Chem Lett, 2007).

Values after ≈ are worked out from the molar mass of the structure shown.

The assay can be described thus: Cytotoxicity against human Ec9706 cells after 48 hrs by MTT assay. The assay is classed as functional, cell-based. To be noted: EC9706, 48 h. (In general: Formazan colour is commonly taken as a measure of viable cells.)
The IC50 is the concentration needed to halve the response being measured. Read a low IC50 as greater potency. With `COC(OC)C1OC(C)(C)OC1Cc1cnc2cc(C(=O)c3ccccc3)ccc2n1` (stereo unspecified), the half-inhibitory concentration (IC50) is 80 µg/mL (≈ 189 µM). Next, `COC(OC)C1OC(C)(C)OC1Cc1cnc2ccc(C(=O)c3ccccc3)cc2n1` (stereo unspecified): 80 µg/mL (≈ 189 µM); `COC(OC)C1OC(C)(C)OC1Cc1cnc2ccc([N+](=O)[O-])cc2n1` (stereo unspecified): 69.2 µg/mL (≈ 190 µM); `COC(OC)C1OC(C)(C)OC1Cc1cnc2ccc(Cl)cc2n1` (stereo unspecified): 30.5 µg/mL (≈ 86.4 µM). The molecule `COC(OC)C1OC(C)(C)OC1Cc1cnc2cc(Cl)ccc2n1` (stereo unspecified) displayed a 50% inhibitory concentration (IC50) of 30.5 µg/mL (≈ 86.4 µM). Next, `COC(OC)C1OC(C)(C)OC1Cc1cnc2ccccc2n1` (stereo unspecified): > 100 µg/mL.
